# Where “and” joins values, the source holds several entries; their conditions need not be identical. Equal values may be shown once.
# Tests used:
# [1] = target: T1, BTK-NanoLuc fusion (Homo sapiens, UniProt Q06187); test: NanoBRET BTK in-cell target engagement assay; assay type: cell-based; details: for NanoBRET(%): Figure 3c
# T1 construct: host or cells: HEK 293T/17
# Summary of the method: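 Tracer-displacement IC50 derived from background-corrected BRET ratio (450 nm donor, 610 nm acceptor) in live HEK293/T17 cells transfected with BTK-NanoLuc. Cells were exposed for 2 h at 37 °C to 1.0 µM tracer plus 5-fold serial dilutions of compound from 10 µM.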
# [2] = target: T2, NanoLuc-CRBN fusion (Homo sapiens, UniProt Q96SW2); test: NanoBRET CRBN in-cell target engagement assay; assay type: cell-based; details: for NanoBRET(%): Figure 3b
# T2 construct: host or cells: HEK 293T/17
# T2 sequence (Q96SW2 whole entry, the tested form may be a part): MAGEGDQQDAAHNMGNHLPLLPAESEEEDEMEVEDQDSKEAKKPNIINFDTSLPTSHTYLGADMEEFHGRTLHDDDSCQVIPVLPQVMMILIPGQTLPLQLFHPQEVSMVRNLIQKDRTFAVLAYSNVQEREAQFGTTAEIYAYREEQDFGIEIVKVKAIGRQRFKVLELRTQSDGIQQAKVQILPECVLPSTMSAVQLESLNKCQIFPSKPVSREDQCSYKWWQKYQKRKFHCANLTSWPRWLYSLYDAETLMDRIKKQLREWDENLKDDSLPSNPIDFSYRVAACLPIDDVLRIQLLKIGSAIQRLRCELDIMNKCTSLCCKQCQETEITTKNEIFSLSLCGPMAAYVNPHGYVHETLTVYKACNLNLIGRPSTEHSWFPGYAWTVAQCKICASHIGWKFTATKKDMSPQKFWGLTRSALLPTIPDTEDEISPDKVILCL
# T2 sequence (Q16531 whole entry partner, the tested form may be a part): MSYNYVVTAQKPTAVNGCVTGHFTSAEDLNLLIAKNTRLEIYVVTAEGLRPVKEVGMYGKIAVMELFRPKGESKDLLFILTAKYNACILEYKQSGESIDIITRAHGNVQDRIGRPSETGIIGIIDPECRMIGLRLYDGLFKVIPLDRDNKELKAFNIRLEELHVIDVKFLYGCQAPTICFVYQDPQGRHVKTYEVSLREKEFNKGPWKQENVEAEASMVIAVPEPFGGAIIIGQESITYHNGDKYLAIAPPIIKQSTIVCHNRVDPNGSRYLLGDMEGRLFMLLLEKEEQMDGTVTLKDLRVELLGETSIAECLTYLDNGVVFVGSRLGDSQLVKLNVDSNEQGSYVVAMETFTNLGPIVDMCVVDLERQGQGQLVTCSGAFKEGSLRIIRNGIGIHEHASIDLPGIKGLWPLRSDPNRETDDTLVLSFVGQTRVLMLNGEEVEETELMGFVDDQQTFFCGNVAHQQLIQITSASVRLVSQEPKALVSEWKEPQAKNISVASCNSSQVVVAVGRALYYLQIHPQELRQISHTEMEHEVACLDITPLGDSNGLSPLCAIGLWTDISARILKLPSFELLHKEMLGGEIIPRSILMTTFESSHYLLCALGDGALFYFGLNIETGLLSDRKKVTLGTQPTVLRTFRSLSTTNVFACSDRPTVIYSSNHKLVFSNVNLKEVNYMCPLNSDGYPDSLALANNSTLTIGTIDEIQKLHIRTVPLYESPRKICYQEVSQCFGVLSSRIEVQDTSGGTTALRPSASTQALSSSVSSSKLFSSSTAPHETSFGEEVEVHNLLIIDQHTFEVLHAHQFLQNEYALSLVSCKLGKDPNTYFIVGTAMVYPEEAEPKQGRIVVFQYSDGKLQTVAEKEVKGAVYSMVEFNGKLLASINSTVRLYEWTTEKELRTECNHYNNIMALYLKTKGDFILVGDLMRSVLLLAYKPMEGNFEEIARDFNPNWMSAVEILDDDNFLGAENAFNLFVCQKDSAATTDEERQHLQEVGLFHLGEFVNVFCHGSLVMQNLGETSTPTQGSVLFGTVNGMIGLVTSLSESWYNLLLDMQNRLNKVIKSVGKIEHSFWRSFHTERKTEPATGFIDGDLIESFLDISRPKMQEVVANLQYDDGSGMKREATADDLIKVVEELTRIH
# Summary of the method: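 Live cells expressing NanoLuc-CRBN with tracer and compound were incubated 2 h, then given Nano-Glo substrate plus extracellular NanoLuc inhibitor for 3 min at room temperature.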
# [3] = Permeability by lipid-PAMPA method (Pharmaron); assay type: in vitro ADME; details: PAMPA
# Experimental: The permeability of compounds was measured using Lipid-PAMPA method by Pharmaron. Preparation of stock solutions: testosterone and methotrexate were used as control compounds in this assay. The stock solutions of positive controls were prepared in DMSO or acetonitrile at the concentration of 10 mM. Prepare a stock solution of compounds in DMSO at the concentration of 10 mM, and further dilute with PBS (pH 7.4). […]
# Assay procedures: prepare a 1.8% solution (w/v) of lecithin in dodecane, and sonicate the mixture to ensure a complete dissolution. Carefully pipette 5 μL of the lecithin/dodecane mixture into each acceptor plate well (top compartment), avoiding pipette tip contact with the membrane. Immediately after the application of the artificial membrane (within 10 min), add 300 μL of PBS (pH 7.4) solution to each well of the acceptor plate. Add 300 μL of drug-containing solutions to each well of the donor plate (bottom compartment) in triplicate. Slowly and carefully place the acceptor plate into the donor plate, making sure the underside of the membrane is in contact with the drug-containing solutions in all wells. Replace the plate lid and incubate at 25 °C, 60 rpm for 16 h. After incubation, aliquots of 50 μL from each well of acceptor and donor plate are transferred into a 96-well plate. Add 450 μL of methanol (containing IS: 100 nM Alprazolam, 200 nM Caffeine, 100 nM Tolbutamide) into each well. Cover with plate lid. Vortex at 750 rpm for 100 s. Samples were centrifuged at 3220 × g for 20 min. Determine the compound concentrations by LC/MS/MS. The effective permeability (Pe), in units of centimeter per second, can be calculated using the following equation: LogPe=LogC×−Ln1−drugacceptor/drugequilibrium
# [4] = target: BTK (Homo sapiens, UniProt Q06187); test: In vitro BTK kinase assay (PhosphoSens); assay type: biochemical; set-up: purchased SignalChem B10-10H-10
# BTK, sequence (Q06187 whole entry): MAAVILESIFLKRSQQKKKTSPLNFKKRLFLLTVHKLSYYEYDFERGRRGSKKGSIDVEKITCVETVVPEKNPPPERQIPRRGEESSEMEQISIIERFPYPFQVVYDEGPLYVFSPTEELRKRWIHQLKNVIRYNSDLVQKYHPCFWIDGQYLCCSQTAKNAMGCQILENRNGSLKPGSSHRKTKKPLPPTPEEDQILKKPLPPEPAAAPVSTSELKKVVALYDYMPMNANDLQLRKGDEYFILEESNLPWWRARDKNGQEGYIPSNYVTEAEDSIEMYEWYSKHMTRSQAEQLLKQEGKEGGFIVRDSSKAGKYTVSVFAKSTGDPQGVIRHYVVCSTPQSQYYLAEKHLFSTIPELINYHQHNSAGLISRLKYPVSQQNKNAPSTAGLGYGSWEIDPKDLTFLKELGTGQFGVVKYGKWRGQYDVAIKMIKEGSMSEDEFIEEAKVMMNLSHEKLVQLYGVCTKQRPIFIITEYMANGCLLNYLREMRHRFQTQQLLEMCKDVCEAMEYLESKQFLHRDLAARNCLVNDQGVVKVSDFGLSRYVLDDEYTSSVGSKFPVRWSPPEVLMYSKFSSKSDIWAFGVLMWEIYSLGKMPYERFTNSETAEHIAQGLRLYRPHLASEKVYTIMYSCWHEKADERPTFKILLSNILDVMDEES
# Experimental: BTK kinase activity inhibition IC50 was measured by PhosphoSens® Kinase Assay Kit (Assay Quant Technologies Inc., Cat.# CSKS-AQT0101K). […] Active recombinant BTK was purchased from SignalChem (Cat.# B10-10H-10). All the drugs (3 warhead control and 4 PROTACs) were dissolved in DMSO (10 mM). […] To calculate the IC50, subtract the background fluorescence determined with the “no kinase” control for each time point from the total signal to obtain corrected Relative Fluorescence Units (RFU) values. Plot the corrected RFU vs. Time for each inhibitor concentration and determine the initial reaction rates (slope of the linear portion) for each progress curve for each inhibitor concentration. Then plot velocity (RFU corrected/minute) vs [inhibitor] and determine the IC50 using a 4-parameter logistic fit.
# T1 sequence (Q06187 whole entry, the tested form may be a part): as the sequence (Q06187 whole entry) above
structure (smiles),measurement,setting,value
CN(CC=CC(=O)N1CCCC(n2nc(-c3ccc(Oc4ccccc4)cc3)c3c(N)ncnc32)C1)CCCNC(=O)CNc1cccc2c1C(=O)N(C1CCC(=O)NC1=O)C2=O (stereo not drawn) [IRC-1],NanoBRET(%),"[1]; 1.00E-05 M, triplicates",10.4557% and 9.057% and 9.053%
same,NanoBRET(%),"[1]; 1.60E-08 M, triplicates",96.913% and 93.9025% and 100.93%
same,NanoBRET(%),"[1]; 2.00E-06 M, triplicates",7.89% and 9.51% and 9.23%
same,NanoBRET(%),"[1]; 3.20E-09 M, triplicates",94.8058% and 107.984% and 103.91%
same,NanoBRET(%),"[1]; 4.00E-07 M, triplicates",11.1403% and 9.255% and 17.6554%
same,NanoBRET(%),"[1]; 8.00E-08 M, triplicates",65.3589% and 58.7338% and 70.2106%
same,IC50,"[1]; HEK-293 cells, BTK tracer 1.0 µM, Table 1 / Fig. 3c, triplicates, read-out: BTK TE IC50,TE",130 nM
same,"K′P,D (relative intracellular accumulation coefficient)","[1]; Kd (BTK)/IC50,TE (BTK)",2.3 × 10^−2
same,BTK engagement,[1]; at 400 nM,~ 100%
same,intracellular accumulation of RC-1 relative to the compound,"[1]; from K′P,D values, BTK (Table 1)",6 folds
same,NanoBRET(%),"[2]; 1.00E-05 M, triplicates",14.8662% and 22.7538% and 22.1529%
same,NanoBRET(%),"[2]; 1.60E-08 M, triplicates",80.9317% and 101.051% and 94.8942%
same,NanoBRET(%),"[2]; 2.00E-06 M, triplicates",31.3092% and 33.6262% and 37.1463%
same,NanoBRET(%),"[2]; 3.20E-09 M, triplicates",91.4483% and 90.0848%
same,NanoBRET(%),"[2]; 4.00E-07 M, triplicates",56.7638% and 59.2904%
same,NanoBRET(%),"[2]; 8.00E-08 M, triplicates",86.864% and 89.7074% and 93.5853%
same,IC50,"[2]; HEK-293 cells, CRBN tracer 0.5 µM, triplicates, read-out: CRBN target engagement IC50,TE",860 nM
same,"K′P,D (relative intracellular accumulation coefficient)","[2]; Kd (CRBN)/IC50,TE (CRBN)",1.7
same,CRBN engagement,[2]; at 400 nM,~ 40%
same,intracellular accumulation of RC-1 relative to the compound,"[2]; from K′P,D values, CRBN (Table 2)",10 fold
same,CRBN target engagement IC50 relative to that of RC-1,[2]; ratio compound/RC-1,3 fold
same,"recovery at 16 h, 10 μM",[3]; Recovery%,17.4%
same,"Papp at 16 h, 10 μM",[3]; pH 7.4,< 0.0245 ×10⁻⁶ cm/s
same,IC50,"[4]; AssayQuant BTK assay kit, 2.5 nM BTK, 1 mM ATP, duplicates, read-out: BTK inhibition IC50",0.8 nM
same,activity at 2.56 pM,"[4]; Supplementary Figure 5, drug concentration 2.56 pM, replicates, read-out: Inhibition(%)",86.2%
same,activity at 12.8 pM,"[4]; Supplementary Figure 5, drug concentration 12.8 pM, replicates, read-out: Inhibition(%)",77.7%
same,activity at 64 pM,"[4]; Supplementary Figure 5, drug concentration 64 pM, replicates, read-out: Inhibition(%)",78.1%
same,activity at 0.00032 µM,"[4]; Supplementary Figure 5, drug concentration 320 pM, replicates, read-out: Inhibition(%)",65.7%
same,activity at 0.0016 µM,"[4]; Supplementary Figure 5, drug concentration 1600 pM, replicates, read-out: Inhibition(%)",28%
same,activity at 0.008 µM,"[4]; Supplementary Figure 5, drug concentration 8000 pM, replicates, read-out: Inhibition(%)",4.02%
same,activity at 0.2 µM,"[4]; Supplementary Figure 5, drug concentration 200000 pM, replicates, read-out: Inhibition(%)",0.667%
same,activity at 1 µM,"[4]; Supplementary Figure 5, drug concentration 1000000 pM, replicates, read-out: Inhibition(%)",2.16%
same,diminished BTK inhibitory activity compared with corresponding warhead control,[4]; ratio of IC50 values,< 3 fold
